# System: THP-1
# Assay: Inhibition of LPS-stimulated TNFalpha production in THP1 cells
# Type: functional, cell-based
# Conditions: Homo sapiens
row,Compound,EC50
1,O=c1[nH]c2cc(Nc3cc(Cl)cc(Cl)c3)ccc2n1CC1CCCCC1,> 10000 nM
2,O=C(c1ccccc1)c1ccc2[nH]c(=O)[nH]c2c1,> 5000 nM
3,O=c1[nH]c2cc(Nc3ccccc3)c(N3CCNCC3)cc2n1CC1CCCCC1,150 nM
4,O=c1[nH]c2cc(Nc3ccc(F)cc3)ccc2n1CC1CCCCC1,74 nM
5,O=c1[nH]c2cc(Oc3ccccc3)ccc2n1CC1CCCCC1,250 nM
6,Cc1ccccc1Nc1cc2[nH]c(=O)n(CC3CCCCC3)c2cc1N1CCN(C)CC1,180 nM
7,CN1CCN(c2cc3c(cc2Nc2ccccc2)[nH]c(=O)n3CC2CCCCC2)CC1,150 nM
8,O=c1[nH]c2cc(Nc3ccccc3F)ccc2n1CC1CCCCC1,66 nM
9,O=c1[nH]c2cc(Nc3ccccc3)ccc2n1CC1CCCCC1,270 nM
10,O=c1[nH]c2cc(Nc3ccccc3)ccc2n1Cc1c(F)cccc1F,220 nM
11,O=C(c1ccccc1)c1ccc2c(c1)[nH]c(=O)n2Cc1ccccc1,1000 nM
12,O=c1[nH]c2cc(Nc3cccc(C(F)(F)F)c3)ccc2n1CC1CCCCC1,2300 nM
13,N=C(N)c1ccc(Cn2c(=O)[nH]c3cc(C(=O)c4ccccc4)ccc32)cc1,> 10000 nM
14,O=c1[nH]c2cc(Nc3ccccc3)ccc2n1C1CCNC1 (configuration not stated),1100 nM
15,CC(C)(C)n1c(=O)[nH]c2cc(Nc3ccccc3)ccc21,74 nM
16,O=c1[nH]c2cc(Nc3ccc(F)cc3F)ccc2n1CC1CCCCC1,46 nM
17,O=c1[nH]c2cc(Nc3cccc(F)c3)ccc2n1CC1CCCCC1,190 nM
18,O=C(c1ccccc1)c1ccc2c(c1)[nH]c(=O)n2CC1CCCCC1,880 nM
19,O=c1[nH]c2cc(Nc3ccc(F)c(F)c3)ccc2n1CC1CCCCC1,420 nM
20,O=c1[nH]c2cc(Nc3ccccc3)ccc2n1Cc1ccccc1,320 nM
21,CC(C)(CN)n1c(=O)[nH]c2cc(Nc3ccccc3)ccc21,3400 nM
22,Cc1ccccc1Nc1ccc2c(c1)[nH]c(=O)n2CC1CCCCC1,64 nM
23,O=c1[nH]c2cc(Nc3ccccc3)ccc2n1C1CCCC1,150 nM
24,Cn1c(=O)[nH]c2cc(C(=O)c3ccccc3)ccc21,> 5000 nM

# Biological target: Mitogen-activated protein kinase 9 (Homo sapiens, UniProt P45984)
# Assay: Inhibition of Jnk2alpha2
# Conditions: not given
# Chain of Mitogen-activated protein kinase 9 (P45984 whole entry): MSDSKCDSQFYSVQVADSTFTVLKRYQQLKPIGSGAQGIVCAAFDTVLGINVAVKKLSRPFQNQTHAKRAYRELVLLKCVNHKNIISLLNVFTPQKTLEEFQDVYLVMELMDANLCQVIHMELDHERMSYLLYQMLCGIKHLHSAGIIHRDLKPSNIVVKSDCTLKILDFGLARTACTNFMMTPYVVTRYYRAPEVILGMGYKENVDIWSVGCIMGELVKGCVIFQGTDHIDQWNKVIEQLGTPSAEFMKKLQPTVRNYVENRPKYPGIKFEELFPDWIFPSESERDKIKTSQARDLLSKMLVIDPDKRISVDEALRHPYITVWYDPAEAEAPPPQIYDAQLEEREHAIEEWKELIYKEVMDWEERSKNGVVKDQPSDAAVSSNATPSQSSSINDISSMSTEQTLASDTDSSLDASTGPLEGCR
row,Compound,IC50
1,O=c1[nH]c2cc(Nc3ccc(F)cc3F)ccc2n1CC1CCCCC1,5500 nM

# System: not listed separately
# Assay: Aqueous solubility at pH 7.4
# Type: physicochemical
# Conditions: not given
row,Compound,solubility
1,CN1CCN(c2cc3c(cc2Nc2ccccc2)[nH]c(=O)n3CC2CCCCC2)CC1,5.7 µM
2,O=c1[nH]c2cc(Nc3ccccc3)ccc2n1CC1CCCCC1,0.2 µM

# Reference: ChEMBL document CHEMBL1146166, “Discovery and design of benzimidazolone based inhibitors of p38 MAP kinase” (Bioorg Med Chem Lett, 2006)
